Measurements: US12138256B2, “Treatment of cardiopulmonary disorders” (Bayer Aktiengesellschaft, priority 2021, dated 2024)
Where “and” joins values, the source holds several entries; their conditions need not be identical. Equal values may be shown once. One block for each compound: values may come before it.

Experiments:
[1] = Protein binding via Transil assay, dog plasma; format: in vitro ADME; settings: Dog Beagle plasma, Transil assay
From the text: (§1) The distribution of a test substance between Transil® (phosphatidylcholine lipid bilayers immobilized on silica beads) and plasma is a characteristic feature of any pharmaceutical compound and is dependent on its extent of binding to plasma proteins. By comparing the distribution between Transil® and buffer with the distribution between Transil® and plasma of any species of interest, the unbound fraction in the plasma of the respective animal species can be calculated in vitro. The respective plasma and buffer concentrations were determined via a radioactivity analysis. A detailed description of the method and its validation was published by Schuhmacher et al. (2).

[2] = Protein binding via Transil assay, plasma of all species investigated (C-5.2); format: in vitro ADME; settings: Wistar (rat), Beagle (dog), plasma (Transil beads), read-out: free fractions
From the text: as §1

[3] = Protein binding via Transil assay, monkey plasma; format: in vitro ADME; settings: Monkey Cynomolgus plasma
From the text: as §1

[4] = tested on: hypoxia induced PAP increase in conscious dogs; assay: Haemodynamics in conscious hypoxia challenged dogs (C-2.2); format: in vivo, dog; set-up: PAP, absolute values for each animal: unit: mmHg; settings: for efficacy (PAP decrease), head to head: up to 6 hrs after inhalation; for mPAP decrease during Hypoxia, each animal / mPAP decrease during Hypoxia, mean +/− SEM: n = 3
Method: Experiments were carried out in anesthetized Göttingen minipigs, anesthetized rats and conscious, telemetrically instrumented dogs. Acute pulmonary hypertension was induced for example by infusion of a thromboxane A2 analogon, by acute hypoxia treatment or hypoxia treatment over a number of weeks and/or by administration of monocrotaline. Test substances were applied via nebulization using the Nebutec® or Aeroneb® Pro nebulizer system, and/or by means of powder and/or solution applicators for experimental intratracheal administration (Liquid MicroSprayer®, Dry Powder Insufflator™, MicroSprayer®, Penn-Century Inc., Wyndmoor, PA, USA) or after solid nebulization inserted into the inspiration arm of the ventilation. Compounds were employed as solids or solutions depending on the molecular structure and the technical possibility depending on the experiment. The haemodynamic signals were recorded and evaluated by means of pressure transducers/amplifiers (Combitransducer B. Braun, Melsungen, Germany or CardioMEMS Inc., Atlanta, GA, USA) and Ponemah® or CardioMems® as data aquisition software. After long-term experiments (for example monocrotaline rat), it is also possible to carry out a histological evaluation.
We evaluated the lung-selectivity and duration of effects of comparative example 11 under conscious conditions, in another species, and under a more physiological stimulus for PAP increase. Dogs were exposed to hypoxia for 30 minutes to induce a hypoxia-mediated PAP increase and comparative example 11 (100 μg/kg nominal dose) was applied by inhalation 1, 5, 12, 16 and 24 hours before hypoxia.
The hypoxic dog model was also used to compare different drug candidates wrt duration of action under conscious conditions.

[5] = tested on: anesthetized PAH minipigs; assay: PAH minipig model: intratracheal application of dry powder formulations and different hydrates (PennCentury insufflator); format: in vivo, Göttingen minipig; settings: intratracheal lactose formulation; lower doses not applicable
From the text: After characterization of the effects of comparative example 11 after nebulization of compound solutions, in a further step the effects of crystalline forms of comparative example 11, e.g. sesquihydrate, e.g. example 6e on PAP and BP after inhaled application of different dry powder lactose formulations (table C2.1.8) were studied in anesthetized PAH minipigs.
As reference pure Lactose vehicle was applied in the beginning of each experiment.

[6] = 100 μg/kg nominal dose inhaled 1 h before hypoxia, time 4 min
[7] = 100 μg/kg nominal dose inhaled 1 h before hypoxia, time 6 min
[8] = 100 μg/kg nominal dose inhaled 1 h before hypoxia, time 8 min
[9] = 100 μg/kg nominal dose inhaled 16 h before hypoxia, time 22 min
[10] = 100 μg/kg nominal dose inhaled 16 h before hypoxia, time 24 min
[11] = 100 μg/kg nominal dose inhaled 16 h before hypoxia, time 26 min
[12] = 100 μg/kg nominal dose inhaled 16 h before hypoxia, time 28 min
[13] = 100 μg/kg nominal dose inhaled 16 h before hypoxia, time 30 min
[14] = 100 μg/kg nominal dose inhaled 16 h before hypoxia, time 32 min
[15] = 100 μg/kg nominal dose inhaled 16 h before hypoxia, time 34 min
[16] = 100 μg/kg nominal dose inhaled 16 h before hypoxia, time 36 min
[17] = 100 μg/kg nominal dose inhaled 16 h before hypoxia, time 38 min
[18] = 100 μg/kg nominal dose inhaled 16 h before hypoxia, time 40 min
[19] = 100 μg/kg nominal dose inhaled 16 h before hypoxia, time 42 min
[20] = 100 μg/kg nominal dose inhaled 16 h before hypoxia, time 44 min
[21] = 100 μg/kg nominal dose inhaled 16 h before hypoxia, time 46 min
[22] = 100 μg/kg nominal dose inhaled 16 h before hypoxia, time 48 min
[23] = 100 μg/kg nominal dose inhaled 16 h before hypoxia, time 50 min
[24] = 100 μg/kg nominal dose inhaled 24 h before hypoxia, time 0 min
[25] = 100 μg/kg nominal dose inhaled 24 h before hypoxia, time 2 min
[26] = 100 μg/kg nominal dose inhaled 24 h before hypoxia, time 4 min
[27] = 100 μg/kg nominal dose inhaled 24 h before hypoxia, time 6 min
[28] = 100 μg/kg nominal dose inhaled 24 h before hypoxia, time 8 min
[29] = 100 μg/kg nominal dose inhaled 24 h before hypoxia, time 10 min
[30] = 100 μg/kg nominal dose inhaled 24 h before hypoxia, time 12 min
[31] = 100 μg/kg nominal dose inhaled 24 h before hypoxia, time 14 min
[32] = 100 μg/kg nominal dose inhaled 24 h before hypoxia, time 16 min
[33] = 100 μg/kg nominal dose inhaled 24 h before hypoxia, time 18 min
[34] = 100 μg/kg nominal dose inhaled 24 h before hypoxia, time 20 min
[35] = 100 μg/kg nominal dose inhaled 24 h before hypoxia, time 22 min
[36] = 100 μg/kg nominal dose inhaled 24 h before hypoxia, time 24 min
[37] = 100 μg/kg nominal dose inhaled 24 h before hypoxia, time 26 min
[38] = 100 μg/kg nominal dose inhaled 24 h before hypoxia, time 28 min
[39] = 100 μg/kg nominal dose inhaled 24 h before hypoxia, time 30 min
[40] = 100 μg/kg nominal dose inhaled, 1-2 h post inhalation
[41] = 100 μg/kg nominal dose inhaled, 5-6 h post inhalation
[42] = 100 μg/kg nominal dose inhaled, 12-13 h post inhalation
[43] = 100 μg/kg nominal dose inhaled, 16-17 h post inhalation
[44] = 100 μg/kg nominal dose inhaled, 24-25 h post inhalation

fraction unbound [1]: 0.0112
fraction unbound [2]: < 0.01
fraction unbound [3]: 0.000799
Compound: O=C(O)CCCCN(CCc1ccccc1OCc1ccc(CCc2ccccc2)cc1)Cc1ccc(C(=O)O)cc1 [comparative example 1, 4-[((4Carboxybutyl)-{2-[(4-phenethylbenzyl)oxy]phenethyl}amino)methyl]benzoic acid]

Compound: O=C(O)c1ccc(CCN(CCc2cc(F)ccc2OCc2ccc(-c3nc4cc(Cl)ccc4o3)cc2)C2CCCc3nc(C(=O)O)ccc32)cc1 (single isomer, unassigned) [comparative example 4, 5-{[2-(4-Carboxyphenyl)ethyl][2-(2-{[4-(5-chloro-1,3-benzoxazol-2-yl)benzyl]oxy}-5-fluorophenyl)-ethyl]amino}-5,6,7,8-tetrahydroquinoline-2-carboxylic acid]
PAP, absolute values for each animal [4, 6]: 9 and 15 and 10
PAP, absolute values for each animal [4, 7]: 9 and 14 and 11
PAP, absolute values for each animal [4, 8]: 10 and 14 and 11
PAP, absolute values for each animal [4, 9]: 23 and 26 and 13
PAP, absolute values for each animal [4, 10]: 23 and 26 and 14
PAP, absolute values for each animal [4, 11]: 21 and 32 and 15
PAP, absolute values for each animal [4, 12]: 22 and 29 and 17
PAP, absolute values for each animal [4, 13]: 26 and 31 and 18
PAP, absolute values for each animal [4, 14]: 24 and 29 and 16
PAP, absolute values for each animal [4, 15]: 23 and 32 and 21
PAP, absolute values for each animal [4, 16]: 20 and 29 and 19
PAP, absolute values for each animal [4, 17]: 25 and 29 and 12
PAP, absolute values for each animal [4, 18]: 25 and 30 and 22
PAP, absolute values for each animal [4, 19]: 12 and 21 and 8
PAP, absolute values for each animal [4, 20]: 9 and 17 and 7
PAP, absolute values for each animal [4, 21]: 9 and 16 and 8
PAP, absolute values for each animal [4, 22]: 6 and 16 and 8
PAP, absolute values for each animal [4, 23]: 6 (2×) and 15
PAP, absolute values for each animal [4, 24]: 10 and 16 and 15
PAP, absolute values for each animal [4, 25]: 12 and 16 and 17
PAP, absolute values for each animal [4, 26]: 10 and 15 and 16
PAP, absolute values for each animal [4, 27]: 10 and 13 and 14
PAP, absolute values for each animal [4, 28]: 9 and 14 and 12
PAP, absolute values for each animal [4, 29]: 10 and 15 and 14
PAP, absolute values for each animal [4, 30]: 18 and 22 and 14
PAP, absolute values for each animal [4, 31]: 18 and 19 and 15
PAP, absolute values for each animal [4, 32]: 20 and 23 and 17
PAP, absolute values for each animal [4, 33]: 23 and 25 and 17
PAP, absolute values for each animal [4, 34]: 23 and 24 and 21
PAP, absolute values for each animal [4, 35]: 22 and 26 and 17
PAP, absolute values for each animal [4, 36]: 24 and 25 and 18
PAP, absolute values for each animal [4, 37]: 23 and 25 and 19
PAP, absolute values for each animal [4, 38]: 22 and 27 and 18
PAP, absolute values for each animal [4, 39]: 23
efficacy (PAP decrease), head to head ([4]; 100 μg/kg nominal dose inhaled): comparable efficacy
mPAP decrease during Hypoxia, each animal [4, 40]: −11.69 mmHg and −10.19 mmHg and −11.38 mmHg
mPAP decrease during Hypoxia, mean +/− SEM [4, 40]: −11.08 ± 0.46 mmHg
mPAP decrease during Hypoxia, each animal [4, 41]: −14.81 mmHg and −6.69 mmHg and −8.00 mmHg
mPAP decrease during Hypoxia, mean +/− SEM [4, 41]: −9.83 ± 2.52 mmHg
mPAP decrease during Hypoxia, each animal [4, 42]: −0.50 mmHg and −4.63 mmHg and −0.56 mmHg
mPAP decrease during Hypoxia, mean +/− SEM [4, 42]: −1.90 ± 1.36 mmHg
mPAP decrease during Hypoxia, each animal [4, 43]: 0.81 mmHg and −0.56 mmHg and −1.06 mmHg
mPAP decrease during Hypoxia, mean +/− SEM [4, 43]: −0.27 ± 0.56 mmHg
mPAP decrease during Hypoxia, each animal [4, 44]: −2.56 mmHg and −3.13 mmHg and −2.25 mmHg
mPAP decrease during Hypoxia, mean +/− SEM [4, 44]: −2.65 ± 0.26 mmHg

Compound: O=C(O)c1ccc(CCN(CCc2ccccc2OCc2ccc(-c3ccc(C(F)(F)F)cc3)cc2Cl)[C@H]2CCCc3nc(C(=O)O)ccc32)cc1 [comparative example 11, (5S)-5-{[2-(4-carboxyphenyl)ethyl][2-(2-{[3-chloro-4′-(trifluoromethyl)[biphenyl]-4-yl]methoxy}phenyl)ethyl]amino}-5,6,7,8-tetrahydroquinoline-2-carboxylic acid]
MED (dry powder) [5]: < 7.5 µg/kg
fraction unbound [1]: 0.00108
fraction unbound [2]: < 0.01
fraction unbound [3]: 0.000485
effects on HR ([4]; 100 μg/kg nominal dose inhaled): No effects on HR
PAP, absolute values for each animal [4, 6]: 10 and 13 and 8
PAP, absolute values for each animal [4, 7]: 12 and 13 and 8
PAP, absolute values for each animal [4, 8]: 10 and 12 and 9
PAP, absolute values for each animal [4, 9]: 23 (2×) and 12
PAP, absolute values for each animal [4, 10]: 21 and 27 and 14
PAP, absolute values for each animal [4, 11]: 23 and 24 and 12
PAP, absolute values for each animal [4, 12]: 21 and 25 and 15
PAP, absolute values for each animal [4, 13]: 21 and 23 and 14
PAP, absolute values for each animal [4, 14]: 18 and 26 and 16
PAP, absolute values for each animal [4, 15]: 18 and 28 and 15
PAP, absolute values for each animal [4, 16]: 17 and 25 and 18
PAP, absolute values for each animal [4, 17]: 18 and 27 and 17
PAP, absolute values for each animal [4, 18]: 17 (2×) and 28
PAP, absolute values for each animal [4, 19]: 9 and 19 and 13
PAP, absolute values for each animal [4, 20]: 7 and 18 and 9
PAP, absolute values for each animal [4, 21]: 7 and 18 and 6
PAP, absolute values for each animal [4, 22]: 6 and 16 and 9
PAP, absolute values for each animal [4, 23]: 7 and 15 and 8
PAP, absolute values for each animal [4, 24]: 10 and 15 (2×)
PAP, absolute values for each animal [4, 25]: 9 and 14 and 12
PAP, absolute values for each animal [4, 26]: 8 and 14 and 10
PAP, absolute values for each animal [4, 27]: 8 and 16 and 11
PAP, absolute values for each animal [4, 28]: 8 and 14 and 9
PAP, absolute values for each animal [4, 29]: 9 and 11 and 10
PAP, absolute values for each animal [4, 30]: 20 (2×) and 15
PAP, absolute values for each animal [4, 31]: 23 and 22 and 19
PAP, absolute values for each animal [4, 32]: 27 and 24 and 22
PAP, absolute values for each animal [4, 33]: 27 and 26 and 20
PAP, absolute values for each animal [4, 34]: 29 (2×) and 23
PAP, absolute values for each animal [4, 35]: 27 and 30 and 22
PAP, absolute values for each animal [4, 36]: 26 and 28 and 22
PAP, absolute values for each animal [4, 37]: 24 and 29 and 17
PAP, absolute values for each animal [4, 38]: 26 and 29 and 20
PAP, absolute values for each animal [4, 39]: 24
efficacy (PAP decrease), head to head ([4]; 100 μg/kg nominal dose inhaled): comparable efficacy
mPAP decrease during Hypoxia, each animal [4, 40]: −12.44 mmHg and −11.44 mmHg and −10.13 mmHg
mPAP decrease during Hypoxia, mean +/− SEM [4, 40]: −11.33 ± 0.67 mmHg
mPAP decrease during Hypoxia, each animal [4, 41]: −16.13 mmHg and −5.44 mmHg and −8.75 mmHg
mPAP decrease during Hypoxia, mean +/− SEM [4, 41]: −10.10 ± 3.16 mmHg
mPAP decrease during Hypoxia, each animal [4, 42]: −3.44 mmHg and −4.81 mmHg and −1.69 mmHg
mPAP decrease during Hypoxia, mean +/− SEM [4, 42]: −3.31 ± 0.90 mmHg
mPAP decrease during Hypoxia, each animal [4, 43]: −2.25 mmHg and −4.25 mmHg and −3.00 mmHg
mPAP decrease during Hypoxia, mean +/− SEM [4, 43]: −3.17 ± 0.58 mmHg
mPAP decrease during Hypoxia, each animal [4, 44]: −0.13 mmHg and −1.94 mmHg and −0.50 mmHg
mPAP decrease during Hypoxia, mean +/− SEM [4, 44]: −0.85 ± 0.55 mmHg
PAP decrease, head to head ([4]; 100 μg/kg nominal dose, 12 and 16 hrs after inhalation): more effective PAP decrease for comparative example 11 compared to comparative example 4
